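Tested at 5 concentrations; 48 h exposure; 96-well plates; endpoints linearly interpolated, else capped at highest concentration. GI50 marks 50% less growth. TGI: total growth inhibition.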
Experiments:
Experiment in all cases: inhibition of tumour cell growth, NCI panel, 48 h
KM20L2 colon = test system: KM20L2 colon
A498 renal = test system: A498 renal
HT29 colon = test system: HT29 colon
MDA-MB-231 breast = test system: MDA-MB-231 breast
MOLT-4 leukemia = test system: MOLT-4 leukemia
K-562 leukemia = test system: K-562 leukemia
LOX IMVI melanoma = test system: LOX IMVI melanoma
MALME-3M melanoma = test system: MALME-3M melanoma
NCI/ADR-RES ovarian = test system: NCI/ADR-RES ovarian
HCT-116 colon = test system: HCT-116 colon
DMS 114 small cell lung = test system: DMS 114 small cell lung

O=c1c2ccccc2n2nnc3ccc(NCCNCCO)c1c32
TGI (KM20L2 colon): 8.29 µM
TGI (A498 renal): 5.52 µM
TGI (HT29 colon): 6.49 µM
TGI (MDA-MB-231 breast): 8.18 µM
TGI (MOLT-4 leukemia): 9.64 µM
TGI (K-562 leukemia): 21.7 µM
TGI (LOX IMVI melanoma): 2.6 µM
TGI (MALME-3M melanoma): 7.84 µM
TGI (NCI/ADR-RES ovarian): 5.96 µM
TGI (HCT-116 colon): 10.3 µM
TGI (DMS 114 small cell lung): 13.4 µM

COc1cc(CNc2nc3c(NC(C)=O)cc(C(F)(F)F)cc3nc2-c2ccccc2)cc(OC)c1OC
TGI (KM20L2 colon): > 100 µM
TGI (MOLT-4 leukemia): > 100 µM
TGI (K-562 leukemia): > 100 µM
TGI (LOX IMVI melanoma): > 100 µM
TGI (MALME-3M melanoma): > 100 µM
TGI (HCT-116 colon): > 100 µM
TGI (DMS 114 small cell lung): > 100 µM

Nc1ncnc2c1ncn2C1C(O)C=C(CO)C1O (stereo not drawn)
TGI (KM20L2 colon): > 625 µM
TGI (HT29 colon): > 625 µM
TGI (LOX IMVI melanoma): > 625 µM
TGI (MALME-3M melanoma): > 625 µM
TGI (NCI/ADR-RES ovarian): > 625 µM
TGI (HCT-116 colon): > 625 µM
TGI (DMS 114 small cell lung): > 625 µM

N#Cc1cc2c(n(C3OC(CO)C(O)C(O)C3O)c1=S)CCC2 (stereo not drawn)
TGI (A498 renal): > 100 µM
TGI (HT29 colon): > 100 µM
TGI (MDA-MB-231 breast): > 100 µM
TGI (MOLT-4 leukemia): > 100 µM
TGI (K-562 leukemia): > 100 µM
TGI (LOX IMVI melanoma): > 100 µM
TGI (MALME-3M melanoma): > 100 µM
TGI (NCI/ADR-RES ovarian): > 100 µM
TGI (HCT-116 colon): > 100 µM

Oc1ccccc1/C=N/c1nc(-c2ccccc2)cs1
GI50 (A498 renal): 77 µM
TGI (A498 renal): > 100 µM
GI50 (HT29 colon): 58.2 µM
TGI (HT29 colon): > 100 µM
GI50 (MDA-MB-231 breast): 20 µM
TGI (MDA-MB-231 breast): > 100 µM
GI50 (MOLT-4 leukemia): 25.4 µM
TGI (MOLT-4 leukemia): 74.7 µM
GI50 (K-562 leukemia): 19.6 µM
TGI (K-562 leukemia): 68 µM
GI50 (LOX IMVI melanoma): 17.6 µM
TGI (LOX IMVI melanoma): 46.9 µM
GI50 (MALME-3M melanoma): 47.2 µM
TGI (MALME-3M melanoma): > 100 µM
GI50 (NCI/ADR-RES ovarian): > 100 µM
TGI (NCI/ADR-RES ovarian): > 100 µM
GI50 (HCT-116 colon): 12.4 µM
TGI (HCT-116 colon): 34.4 µM

O=c1[nH]c(NCCCCCO)nc2nc[nH]c12
TGI (A498 renal): > 100 µM
TGI (HT29 colon): > 100 µM
TGI (MDA-MB-231 breast): > 100 µM
TGI (MOLT-4 leukemia): > 100 µM
TGI (K-562 leukemia): > 100 µM
TGI (LOX IMVI melanoma): > 100 µM
TGI (MALME-3M melanoma): > 100 µM
TGI (NCI/ADR-RES ovarian): > 100 µM
TGI (HCT-116 colon): > 100 µM

O=[N+]([O-])/C=C/c1cn(CCCCCCCCn2cc(/C=C/[N+](=O)[O-])c3ccccc32)c2ccccc12
TGI (A498 renal): > 10 µM
TGI (HT29 colon): > 10 µM
TGI (MDA-MB-231 breast): > 10 µM
TGI (MOLT-4 leukemia): > 10 µM
TGI (K-562 leukemia): > 10 µM
TGI (LOX IMVI melanoma): > 10 µM
TGI (MALME-3M melanoma): > 10 µM
TGI (NCI/ADR-RES ovarian): > 10 µM
TGI (HCT-116 colon): 0.396 µM

O=c1ccc(=O)c2c1c1[nH]c3ccccc3c1c1c(=O)c3ccccc3c(=O)c21
TGI (A498 renal): > 10 µM
TGI (HT29 colon): > 10 µM
TGI (MDA-MB-231 breast): > 10 µM
TGI (MOLT-4 leukemia): 7.55 µM
TGI (K-562 leukemia): > 10 µM
TGI (LOX IMVI melanoma): > 10 µM
TGI (MALME-3M melanoma): > 10 µM
TGI (NCI/ADR-RES ovarian): > 10 µM
TGI (HCT-116 colon): > 10 µM

CN=C1C=C(/N=C2/C=C(N/C(=C\C#N)C(C)(C)O)OC2(C)C)OC1(C)C
TGI (A498 renal): 88.9 µM
TGI (HT29 colon): > 100 µM
TGI (MDA-MB-231 breast): > 100 µM
TGI (MOLT-4 leukemia): > 100 µM
TGI (K-562 leukemia): 80.4 µM
TGI (LOX IMVI melanoma): > 100 µM
TGI (MALME-3M melanoma): > 100 µM
TGI (NCI/ADR-RES ovarian): > 62.6 µM
TGI (HCT-116 colon): 69.4 µM

COC(=O)c1sc2c(Cl)c(Cl)sc2c1Cl
TGI (A498 renal): > 100 µM
TGI (HT29 colon): > 100 µM
TGI (MDA-MB-231 breast): > 100 µM
TGI (MOLT-4 leukemia): > 100 µM
TGI (K-562 leukemia): > 100 µM
TGI (LOX IMVI melanoma): > 100 µM
TGI (MALME-3M melanoma): > 100 µM
TGI (NCI/ADR-RES ovarian): > 100 µM
TGI (HCT-116 colon): > 100 µM

O=C(Nc1nnc(-c2ccccc2)o1)C(SC(=S)N1CCCC1)c1ccccc1 (stereo not drawn)
TGI (A498 renal): 81.6 µM
TGI (HT29 colon): > 100 µM
TGI (MDA-MB-231 breast): > 100 µM
TGI (MOLT-4 leukemia): > 100 µM
TGI (K-562 leukemia): > 100 µM
TGI (LOX IMVI melanoma): 41.4 µM
TGI (MALME-3M melanoma): > 100 µM
TGI (NCI/ADR-RES ovarian): 60.1 µM
TGI (HCT-116 colon): 79.5 µM

N#CC(c1cc(Cl)ncn1)c1nc2cc(C(F)(F)F)ccc2s1 (stereo not drawn)
TGI (A498 renal): 56.2 µM
TGI (HT29 colon): 12.3 µM
TGI (MDA-MB-231 breast): 33.9 µM
TGI (MOLT-4 leukemia): > 100 µM
TGI (K-562 leukemia): > 100 µM
TGI (LOX IMVI melanoma): 11.8 µM
TGI (MALME-3M melanoma): 17.5 µM
TGI (NCI/ADR-RES ovarian): 9.5 µM
TGI (HCT-116 colon): 8.9 µM

Cc1cc(C)n(C(C)(C(=O)Cc2ccccc2)n2nc(C)cc2C)n1
TGI (A498 renal): > 100 µM
TGI (HT29 colon): > 100 µM
TGI (MDA-MB-231 breast): > 100 µM
TGI (MOLT-4 leukemia): > 100 µM
TGI (K-562 leukemia): > 100 µM
TGI (LOX IMVI melanoma): > 100 µM
TGI (MALME-3M melanoma): > 100 µM
TGI (NCI/ADR-RES ovarian): > 100 µM
TGI (HCT-116 colon): > 100 µM

CSC1=C(C)C(/C=N/Nc2ccc([N+](=O)[O-])cc2)=C(C)N(c2ccccc2)S1(=O)=O
TGI (A498 renal): > 100 µM
TGI (HT29 colon): > 100 µM
TGI (MDA-MB-231 breast): > 100 µM
TGI (MOLT-4 leukemia): > 100 µM
TGI (K-562 leukemia): > 100 µM
TGI (LOX IMVI melanoma): > 100 µM
TGI (MALME-3M melanoma): > 100 µM
TGI (NCI/ADR-RES ovarian): > 100 µM
TGI (HCT-116 colon): > 100 µM

CC(C)(C)OC(=O)N1CCC2(CC1)C(=O)NCN2c1ccccc1
TGI (A498 renal): > 100 µM
TGI (HT29 colon): > 100 µM
TGI (MDA-MB-231 breast): > 100 µM
TGI (MOLT-4 leukemia): > 100 µM
TGI (K-562 leukemia): > 100 µM
TGI (LOX IMVI melanoma): > 100 µM
TGI (MALME-3M melanoma): > 100 µM
TGI (NCI/ADR-RES ovarian): > 100 µM
TGI (HCT-116 colon): > 100 µM

COc1ccc(Nc2nc(N)c(C(=O)c3ccco3)s2)cc1
TGI (A498 renal): > 61.1 µM
TGI (HT29 colon): > 100 µM
TGI (MDA-MB-231 breast): > 100 µM
TGI (MOLT-4 leukemia): > 55.7 µM
TGI (K-562 leukemia): > 100 µM
TGI (LOX IMVI melanoma): > 100 µM
TGI (MALME-3M melanoma): > 100 µM
TGI (NCI/ADR-RES ovarian): > 94.8 µM
TGI (HCT-116 colon): > 66.4 µM

COc1cc2c(cc1OCCN1CCN(CCOc3cc4c(cc3OC)C(=O)N3CCC[C@H]3C=N4)CC1)N=C[C@@H]1CCCN1C2=O
TGI (A498 renal): > 72.5 µM
TGI (HT29 colon): > 100 µM
TGI (MDA-MB-231 breast): 54.5 µM
TGI (MOLT-4 leukemia): 6.78 µM
TGI (K-562 leukemia): > 60.5 µM
GI50 (LOX IMVI melanoma): > 100 µM
TGI (LOX IMVI melanoma): > 100 µM
TGI (MALME-3M melanoma): 38.4 µM
TGI (NCI/ADR-RES ovarian): > 100 µM
TGI (HCT-116 colon): > 86.8 µM

CC(C)(C)[C@H]1NC(=O)CN1C(=O)OCc1ccccc1
TGI (A498 renal): 54.9 µM
TGI (HT29 colon): > 100 µM
TGI (MDA-MB-231 breast): > 100 µM
TGI (MOLT-4 leukemia): > 100 µM
TGI (K-562 leukemia): > 100 µM
TGI (LOX IMVI melanoma): > 100 µM
TGI (MALME-3M melanoma): > 100 µM
TGI (NCI/ADR-RES ovarian): > 100 µM
TGI (HCT-116 colon): > 100 µM

CCOc1ccc(Nc2nc(N)nc(N)c2N=O)cc1
TGI (A498 renal): > 100 µM
TGI (HT29 colon): > 100 µM
TGI (MDA-MB-231 breast): > 100 µM
TGI (MOLT-4 leukemia): 76.6 µM
TGI (K-562 leukemia): > 100 µM
TGI (LOX IMVI melanoma): > 100 µM
TGI (MALME-3M melanoma): > 100 µM
TGI (NCI/ADR-RES ovarian): > 100 µM
TGI (HCT-116 colon): > 100 µM

CC1(O)CC23CC(O)C4(O)C(CC(O)C4(C)C)C(C)(O)C2CCC1C3O (stereo not drawn)
TGI (A498 renal): > 100 µM
TGI (HT29 colon): > 100 µM
TGI (MDA-MB-231 breast): > 100 µM
TGI (MOLT-4 leukemia): > 100 µM
TGI (K-562 leukemia): > 100 µM
TGI (LOX IMVI melanoma): > 100 µM
TGI (MALME-3M melanoma): > 100 µM
TGI (NCI/ADR-RES ovarian): > 100 µM
TGI (HCT-116 colon): > 100 µM
